According to patent US20210300940A1 (Merck Patent GmbH, priority 2018, published 2021):
Counter-ions that a name gives are not always drawn.

Legend:
TLR8 = biological target: T1, TLR8 (Homo sapiens, UniProt Q9NR97); assay: HEK/293 TLR8 Cell Assay; type: cell-based; settings: HEK cells, R848 agonist 30 uM final concentration, Steady-Glo readout; read-out: TLR8 potency
T1 construct: expressed in transfected cells; host or cells: HEK/293 reporter cells (NF-kB luciferase)
T1 sequence (Q9NR97 27-1041): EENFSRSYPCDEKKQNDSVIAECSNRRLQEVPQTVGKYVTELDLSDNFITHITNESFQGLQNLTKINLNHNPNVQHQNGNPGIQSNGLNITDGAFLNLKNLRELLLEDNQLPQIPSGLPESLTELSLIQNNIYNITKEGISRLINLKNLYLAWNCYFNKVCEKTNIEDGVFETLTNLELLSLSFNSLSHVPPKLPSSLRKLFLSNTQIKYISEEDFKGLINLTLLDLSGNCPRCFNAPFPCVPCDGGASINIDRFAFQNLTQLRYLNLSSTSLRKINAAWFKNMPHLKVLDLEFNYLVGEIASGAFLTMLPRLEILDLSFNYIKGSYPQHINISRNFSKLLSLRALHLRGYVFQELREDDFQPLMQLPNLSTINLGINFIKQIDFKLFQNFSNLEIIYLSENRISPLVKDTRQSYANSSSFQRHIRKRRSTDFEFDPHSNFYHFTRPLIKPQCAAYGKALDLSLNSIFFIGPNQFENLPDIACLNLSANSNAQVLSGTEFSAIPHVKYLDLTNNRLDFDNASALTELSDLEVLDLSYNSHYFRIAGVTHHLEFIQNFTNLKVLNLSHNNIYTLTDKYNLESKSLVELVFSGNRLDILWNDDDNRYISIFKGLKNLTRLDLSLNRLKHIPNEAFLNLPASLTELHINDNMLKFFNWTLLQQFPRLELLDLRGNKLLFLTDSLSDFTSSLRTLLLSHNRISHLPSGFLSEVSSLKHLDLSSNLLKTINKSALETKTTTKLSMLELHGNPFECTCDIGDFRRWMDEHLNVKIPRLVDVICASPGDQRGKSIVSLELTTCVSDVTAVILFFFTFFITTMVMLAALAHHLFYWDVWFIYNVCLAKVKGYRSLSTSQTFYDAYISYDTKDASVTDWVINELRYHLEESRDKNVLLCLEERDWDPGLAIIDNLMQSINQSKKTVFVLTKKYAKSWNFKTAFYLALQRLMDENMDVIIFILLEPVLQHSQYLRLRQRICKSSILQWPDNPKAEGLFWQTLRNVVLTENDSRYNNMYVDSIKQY

TLR7 = biological target: T2, TLR7 (Homo sapiens, UniProt Q9NYK1); assay: HEK/293 TLR7 Cell Assay; type: cell-based; settings: TLR7/NFKb HEK cells, R848 agonist 10 uM final concentration, Steady-Glo readout; read-out: TLR7 potency
T2 construct: expressed in transfected cells; host or cells: HEK/293 cells carrying TLR7 and an NF-kB luciferase reporter
T2 sequence (Q9NYK1 27-1049): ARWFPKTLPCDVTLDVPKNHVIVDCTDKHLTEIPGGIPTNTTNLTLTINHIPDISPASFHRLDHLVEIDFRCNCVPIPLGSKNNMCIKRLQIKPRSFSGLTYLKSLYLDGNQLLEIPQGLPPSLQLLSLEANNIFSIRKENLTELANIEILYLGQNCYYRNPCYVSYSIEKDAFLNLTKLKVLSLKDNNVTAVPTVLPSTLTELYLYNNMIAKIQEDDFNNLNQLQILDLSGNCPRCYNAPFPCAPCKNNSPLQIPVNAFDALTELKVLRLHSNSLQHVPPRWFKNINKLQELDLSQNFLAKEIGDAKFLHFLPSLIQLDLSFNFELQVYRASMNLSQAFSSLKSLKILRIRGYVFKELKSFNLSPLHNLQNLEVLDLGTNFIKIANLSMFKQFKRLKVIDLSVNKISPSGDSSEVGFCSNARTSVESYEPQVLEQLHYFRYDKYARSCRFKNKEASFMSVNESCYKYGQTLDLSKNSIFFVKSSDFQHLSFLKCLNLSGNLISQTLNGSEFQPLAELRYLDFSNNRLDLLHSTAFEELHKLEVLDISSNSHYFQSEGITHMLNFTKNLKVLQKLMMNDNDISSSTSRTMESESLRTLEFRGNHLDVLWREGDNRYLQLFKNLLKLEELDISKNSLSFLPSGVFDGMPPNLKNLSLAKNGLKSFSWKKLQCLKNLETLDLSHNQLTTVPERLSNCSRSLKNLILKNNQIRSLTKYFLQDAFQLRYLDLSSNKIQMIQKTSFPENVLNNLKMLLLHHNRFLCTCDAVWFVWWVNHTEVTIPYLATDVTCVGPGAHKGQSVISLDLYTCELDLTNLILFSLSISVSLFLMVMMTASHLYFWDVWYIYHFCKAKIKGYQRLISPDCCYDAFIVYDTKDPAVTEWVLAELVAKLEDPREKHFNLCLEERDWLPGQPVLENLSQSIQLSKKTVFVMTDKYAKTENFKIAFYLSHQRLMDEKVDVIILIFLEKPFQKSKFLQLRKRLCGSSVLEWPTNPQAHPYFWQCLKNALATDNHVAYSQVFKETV
Method in brief: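 TLR7/NF-κB reporter HEK293 cells, 5000/well, cultured 24 h, then preincubated 30 min with compound before R848 agonist (10 uM final). After 5 h stimulation, Steady-Glo luciferase luminescence read.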

SMILES: C[C@H]1C[C@@H](NC(=O)C[C@H]2[C@@H]3C[C@H]2CN(C)C3)CN(c2ccc(C(F)(F)F)c3ncccc23)C1 [Example 106, N-[(3R,5S)-5-methyl-1-[8-(trifluoromethyl)quinolin-5-yl]piperidin-3-yl]-2-[(1R,5S,6s)-3-methyl-3-azabicyclo[3.1.1]heptan-6-yl]acetamide]
- IC50 (TLR8): < 75 nM
- IC50 (TLR7): < 75 nM

SMILES: C[C@H]1C[C@@H](NCCNS(N)(=O)=O)CN(c2ccc(C(F)(F)F)c3ncccc23)C1 [Example 19]
- IC50 (TLR8): < 75 nM
- IC50 (TLR7): 75 to 150 nM

SMILES: CC(C)(O)CNC(=O)[C@H]1CN(c2ccc(C#N)c3nccnc23)C[C@@H](C(F)(F)F)O1 (single isomer, unassigned) [Example 284]
- IC50 (TLR8): 75 to 150 nM
- IC50 (TLR7): < 75 nM

SMILES: C[C@@H]1CN(c2cnc(C(F)(F)F)c3ncccc23)C[C@H](CNC2CCS(=O)(=O)CC2)O1 [Example 384, (1,1-Dioxo-hexahydro-1lambda6-thiopyran-4-yl)-[(2S,6R)-6-methyl-4-(8-trifluoromethyl-[1,7]naphthyridin-5-yl)-morpholin-2-ylmethyl]-amine]
- IC50 (TLR8): > 150 nM
- IC50 (TLR7): < 75 nM

SMILES: N#Cc1ccc(N2C[C@@H](C(=O)N[C@H]3CNC[C@H]3F)O[C@@H](C(F)(F)F)C2)c2nccnc12 (single isomer, unassigned) [Example 304]
- IC50 (TLR8): < 75 nM
- IC50 (TLR7): < 75 nM

SMILES: Cc1ccc(N2C[C@@H](C)C[C@@H](NC(=O)CN3CCN(C)CC3)C2)c2cccnc12 [Example 86, N-[(3R,5S)-5-methyl-1-(8-methylquinolin-5-yl)piperidin-3-yl]-2-(4-methylpiperazin-1-yl)acetamide]
- IC50 (TLR8): < 75 nM
- IC50 (TLR7): 75 to 150 nM

SMILES: C[C@@H]1CN(c2ccc(C#N)c3ncncc23)C[C@H](CNC(=O)[C@]2(F)CCNC2)O1 (single isomer, unassigned) [Example 345]
- IC50 (TLR8): < 75 nM
- IC50 (TLR7): < 75 nM

SMILES: C[C@@H]1CN(c2ccc(C#N)c3nccnc23)C[C@H](C(=O)NC2CCN(CC(F)(F)F)CC2)O1 [Example 247, (2R,6R)-4-(8-Cyano-quinoxalin-5-yl)-6-methyl-morpholine-2-carboxylic acid [1-(2,2,2-trifluoro-ethyl)-piperidin-4-yl]-amide]
- IC50 (TLR8): < 75 nM
- IC50 (TLR7): < 75 nM

SMILES: C[C@H]1C[C@@H](NC(=O)CC2(O)CCN(C)CC2)CN(c2ccc(C(F)(F)F)c3nccnc23)C1 [Example 80, 2-(4-hydroxy-1-methylpiperidin-4-yl)-N-[(3R,5S)-5-methyl-1-[8-(trifluoromethyl)quinoxalin-5-yl]piperidin-3-yl]acetamide hydrochloride]
- IC50 (TLR8): < 75 nM
- IC50 (TLR7): < 75 nM

SMILES: CCN(C)CCNC(=O)[C@H]1CN(c2cnc(C#N)c3ncccc23)C[C@@H](C)O1 [Example 270, (2R,6R)-4-(8-Cyano-[1,7]naphthyridin-5-yl)-6-methyl-morpholine-2-carboxylic acid [2-(ethyl-methyl-amino)-ethyl]-amide]
- IC50 (TLR8): < 75 nM
- IC50 (TLR7): < 75 nM

SMILES: C[C@H]1C[C@@H](NC(=O)[C@@](C)(N)CO)CN(c2ccc(C(F)(F)F)c3ncccc23)C1 [Example 178, (S)-2-Amino-3-hydroxy-2-methyl-N-[(3R,5S)-5-methyl-1-(8-trifluoromethyl-quinolin-5-yl)-piperidin-3-yl]-propionamide]
- IC50 (TLR8): < 75 nM
- IC50 (TLR7): > 150 nM

SMILES: N#Cc1ccc(N2C[C@H](NC(=O)C3(F)CCNC3)C[C@H](C(F)(F)F)C2)c2cccnc12 (stereo partly drawn) [Example 206, N-[(3R,5S)-1-(8-cyanoquinolin-5-yl)-5-(trifluoromethyl)piperidin-3-yl]-3-fluoropyrrolidine-3-carboxamide]
- IC50 (TLR8): 75 to 150 nM
- IC50 (TLR7): 75 to 150 nM

SMILES: C[C@@H]1CN(c2ccc(C#N)c3nccnc23)C[C@H](C(=O)NC[C@H](O)CN(C)C)O1 (single isomer, unassigned) [Example 261]
- IC50 (TLR8): < 75 nM
- IC50 (TLR7): < 75 nM

SMILES: CN1CCC(O)(CC(=O)N[C@@H]2C[C@H](C(F)(F)F)CN(c3ccc(C(F)(F)F)c4nccnc34)C2)CC1 [Example 63, 2-(4-hydroxy-1-methylpiperidin-4-yl)-N-[(3R,5S)-5-(trifluoromethyl)-1-[8-(trifluoromethyl)quinoxalin-5-yl]piperidin-3-yl]acetamide]
- IC50 (TLR8): < 75 nM
- IC50 (TLR7): < 75 nM

SMILES: CCS(=O)(=O)NCCN[C@@H]1C[C@H](C)CN(c2ccc(C#N)c3nccnc23)C1 [Example 46, Ethane sulfonic acid {2-[(3R,5S)-1-(8-cyano-quinoxalin-5-yl)-5-methyl-piperidin-3-ylamino]-ethyl}-amide]
- IC50 (TLR8): < 75 nM
- IC50 (TLR7): 75 to 150 nM

SMILES: Cc1ccc(N2C[C@@H](C)C[C@@H](NC(=O)[C@@H]3CCCN3)C2)c2cccnc12 [Example 122, (2S)—N-[(3R,5S)-5-methyl-1-(8-methylquinolin-5-yl)piperidin-3-yl]pyrrolidine-2-carboxamide]
- IC50 (TLR8): < 75 nM
- IC50 (TLR7): > 150 nM

SMILES: CCS(=O)(=O)NCCN[C@@H]1C[C@H](C)CN(c2ccc(C(F)(F)F)c3nccnc23)C1 [Example 24]
- IC50 (TLR8): < 75 nM
- IC50 (TLR7): 75 to 150 nM

SMILES: C[C@@H](O)CNC(=O)[C@@H]1CN(c2ccc(C#N)c3nccnc23)C[C@H](C(F)(F)F)O1 (single isomer, unassigned) [Example 279]
- IC50 (TLR8): > 150 nM
- IC50 (TLR7): 75 to 150 nM

SMILES: N#Cc1ccc(N2C[C@H](N)CC(F)(F)C2)c2cccnc12 (single isomer, unassigned) [Example 198]
- IC50 (TLR8): > 150 nM
- IC50 (TLR7): > 150 nM

SMILES: N#Cc1ccc(N2C[C@@H](C(F)(F)F)O[C@@H](C(=O)NC[C@@H](O)CO)C2)c2nccnc12 (single isomer, unassigned) [Example 282]
- IC50 (TLR8): > 150 nM
- IC50 (TLR7): 75 to 150 nM

SMILES: C[C@@H]1CN(c2ccc(C#N)c3nccnc23)C[C@H](CN2CCC(F)(F)C2)O1 [Example 215, 8-[(2S,6R)-2-(3,3-Difluoro-pyrrolidin-1-ylmethyl)-6-methyl-morpholin-4-yl]-quinoxaline-5-carbonitrile]
- IC50 (TLR8): > 150 nM
- IC50 (TLR7): 75 to 150 nM

SMILES: C[C@H]1C[C@@H](NCCC(=O)N2CC(O)C2)CN(c2ccc(C(F)(F)F)c3ncccc23)C1 [Example 53, 1-(3-Hydroxy-azetidin-1-yl)-3-[(3R,5S)-5-methyl-1-(8-trifluoromethyl-quinolin-5-yl)-piperidin-3-ylamino]-propan-1-one]
- IC50 (TLR8): 75 to 150 nM
- IC50 (TLR7): < 75 nM

SMILES: C[C@@H]1CN(c2ccc(C#N)c3nccnc23)C[C@H](C(=O)NC[C@H]2CN(C)CCO2)O1 (single isomer, unassigned) [Example 324]
- IC50 (TLR8): < 75 nM
- IC50 (TLR7): < 75 nM
